From patent US6803198B2, “Carbamate-derivatized nucleosides and oligonucleosides” (ISIS Pharmaceuticals, Inc., priority 1996, dated 2004)

Tests used:
ICAM-1 [1] = assay: Inhibition of LPS-induced ICAM-1 expression in mouse liver; type: in vivo, C57Bl/10 mice; settings: 10 mg/kg i.v. twice, 24 h and 2 h before LPS; liver RNA 4 h after LPS
VCAM-1 = VCAM-1 expression in cell culture (target specificity control); type: cell-based, mouse; settings: isotype protein VCAM-1
Description: Cholesterol-oligonucleotide assays for ICAM-1 are done in the bEnd.3 cell line, a brain endothelioma using Opti-MEM, trypsin-EDTA and DMEM with high glucose (all from Gibco-BRL, Grand Island, N.Y.), Dulbecco's PBS (Irvine Scientific, Irvine, Calif.), sterile, 12 well tissue culture plates and Facsflow solution (from Becton Dickinson, Mansfield, Mass.), ultrapure formaldehyde (Polysciences, Warrington, Pa.), recombinant human TNF-α (R&D Systems, Minneapolis, Minn., mouse interferon-γ (Genzyme, Cambridge, Mass.), and Fraction V, BSA (Sigma, St. Louis, Mo.). The mouse ICAM-1-PE, VCAM-1-FITC, hamster IgG-FITC and rat IgG2α-PE antibodies were purchased from Pharmingen (San Diego, Calif.). Zeta-Probe nylon blotting membrane was purchased from Bio-Rad (Richmond, Calif.). QuickHyb solution was purchased from Stratagene (La Jolla, Calif.). A cDNA labeling kit, Prime-a-Gene, was purchased from ProMega (Madison, Wis.). NAP-5 columns were purchased from Pharmacia (Uppsala, Sweden). Cells are grown to approximately 75% confluency in 12 well plates with DMEM containing 4.5 g/L glucose and 10% FBS. […] Cells are analyzed on a Becton Dickinson FACScan. Results are expressed as percentage of control expression, which is calculated as follows: [((CAM expression for oligonucleotide-treated cytokine induced cells)−(basal CAM expression))/((cytokine-induced CAM expression)−(basal CAM expression))]×100. […]

[2] = mouse, in vivo
Experimental: The effect of cholesterol conjugation on the pharmacokinetic properties of the oligonucleotide is determined in mice using ^3H radiolabeled Oligonucleotide VI.

ICAM-1 [3] = assay: ICAM-1 expression in bEnd.3 cells (flow cytometry of cell-surface protein, Northern blot of mRNA); type: cell-based, mouse; settings: cell culture, without any cationic lipid adjuvant
Description: Cholesterol-oligonucleotide assays for ICAM-1 are done in the bEnd.3 cell line, a brain endothelioma using Opti-MEM, trypsin-EDTA and DMEM with high glucose (all from Gibco-BRL, Grand Island, N.Y.), Dulbecco's PBS (Irvine Scientific, Irvine, Calif.), sterile, 12 well tissue culture plates and Facsflow solution (from Becton Dickinson, Mansfield, Mass.), ultrapure formaldehyde (Polysciences, Warrington, Pa.), recombinant human TNF-α (R&D Systems, Minneapolis, Minn., mouse interferon-γ (Genzyme, Cambridge, Mass.), and Fraction V, BSA (Sigma, St. Louis, Mo.). The mouse ICAM-1-PE, VCAM-1-FITC, hamster IgG-FITC and rat IgG2α-PE antibodies were purchased from Pharmingen (San Diego, Calif.). Zeta-Probe nylon blotting membrane was purchased from Bio-Rad (Richmond, Calif.). QuickHyb solution was purchased from Stratagene (La Jolla, Calif.). A cDNA labeling kit, Prime-a-Gene, was purchased from ProMega (Madison, Wis.). NAP-5 columns were purchased from Pharmacia (Uppsala, Sweden). […]
After oligonucleotide treatment, cells are detached from the plates with a short treatment of trypsin-EDTA (1-2 min.). […] Cells are analyzed on a Becton Dickinson FACScan. Results are expressed as percentage of control expression, which is calculated as follows: [((CAM expression for oligonucleotide-treated cytokine induced cells)−(basal CAM expression))/((cytokine-induced CAM expression)−(basal CAM expression))]×100. […]

Substance: Oligomer VI: TGC* ATC CCC CAG GCC ACC AT (P = S), C* = cholesterol carbamate nucleoside Compound 9; cholesterol conjugate of ISIS 3082
- reduction of ICAM expression in liver (ICAM-1 [1]): 40-50%
- inhibition of VCAM-1 expression (VCAM-1): neither molecule show significant inhibition
- amount of oligonucleotide in kidney, skeletal muscle and skin [2]: reduced in kidney, skeletal muscle and skin
- amount of oligonucleotide in liver [2]: more oligonucleotide is found in the liver
- retention in plasma [2]: retained in the plasma for longer periods of time than is ISIS-3082
- effect on ICAM-1 expression (ICAM-1 [3]): inhibits ICAM-1 in a dose dependent manner
